The values that follow come from US20040229791A1, “Compositions and methods of modulating TGF-beta activity by fatty acids” (priority 2002, published 2004).

The target of one test is T1, TGF-β1-α2M* complex (Homo sapiens, UniProt P01023).
T1 construct: was purified from pooled citrate-treate human plasma; from tissue; host or cells: pooled citrate-treated human plasma
T1 sequence (P01023 24-1474): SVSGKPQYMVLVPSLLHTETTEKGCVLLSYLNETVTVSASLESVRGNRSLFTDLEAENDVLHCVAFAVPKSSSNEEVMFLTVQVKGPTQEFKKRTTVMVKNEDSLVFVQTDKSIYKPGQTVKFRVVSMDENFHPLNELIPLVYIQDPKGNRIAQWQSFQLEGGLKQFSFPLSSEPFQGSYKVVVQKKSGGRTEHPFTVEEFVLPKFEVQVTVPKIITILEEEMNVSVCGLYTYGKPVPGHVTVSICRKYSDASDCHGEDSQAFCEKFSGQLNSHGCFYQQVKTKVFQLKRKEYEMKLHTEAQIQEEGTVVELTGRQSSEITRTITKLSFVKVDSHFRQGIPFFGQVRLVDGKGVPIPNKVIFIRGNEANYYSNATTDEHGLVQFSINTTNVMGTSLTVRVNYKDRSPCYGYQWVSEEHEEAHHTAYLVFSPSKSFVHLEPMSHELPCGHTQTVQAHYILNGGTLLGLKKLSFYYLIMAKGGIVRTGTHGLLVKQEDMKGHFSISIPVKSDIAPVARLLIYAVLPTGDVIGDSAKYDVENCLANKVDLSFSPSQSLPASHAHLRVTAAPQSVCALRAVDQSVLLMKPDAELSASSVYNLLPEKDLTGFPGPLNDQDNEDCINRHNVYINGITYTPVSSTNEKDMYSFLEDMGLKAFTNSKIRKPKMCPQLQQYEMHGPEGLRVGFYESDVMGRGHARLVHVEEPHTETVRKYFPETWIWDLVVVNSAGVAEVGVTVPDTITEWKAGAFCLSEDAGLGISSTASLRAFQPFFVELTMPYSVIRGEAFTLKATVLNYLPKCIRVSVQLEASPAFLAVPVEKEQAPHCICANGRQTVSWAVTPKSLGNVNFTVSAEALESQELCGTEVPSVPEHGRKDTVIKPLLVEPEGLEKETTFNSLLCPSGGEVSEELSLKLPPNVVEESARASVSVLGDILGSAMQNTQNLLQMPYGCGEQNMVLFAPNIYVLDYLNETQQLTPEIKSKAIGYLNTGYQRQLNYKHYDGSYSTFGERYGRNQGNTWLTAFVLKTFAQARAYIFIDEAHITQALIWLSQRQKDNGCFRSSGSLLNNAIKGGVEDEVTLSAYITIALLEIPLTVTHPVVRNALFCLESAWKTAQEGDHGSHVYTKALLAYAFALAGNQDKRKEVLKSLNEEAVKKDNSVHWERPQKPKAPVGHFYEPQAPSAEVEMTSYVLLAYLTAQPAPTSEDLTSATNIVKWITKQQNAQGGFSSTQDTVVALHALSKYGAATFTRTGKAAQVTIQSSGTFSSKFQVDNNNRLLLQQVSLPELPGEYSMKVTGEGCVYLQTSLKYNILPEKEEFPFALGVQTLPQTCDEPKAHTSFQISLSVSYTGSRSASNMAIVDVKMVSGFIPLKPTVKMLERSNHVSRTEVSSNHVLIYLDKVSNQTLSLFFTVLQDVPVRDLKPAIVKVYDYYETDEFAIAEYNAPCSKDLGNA
Kind of test: Inhibition of 125I-TGF-β1 and α2M* complex formation (5% non-denaturing PAGE, autoradiography). Format: binding. The settings on record: for IC50: ~1 nM 125I-TGF-β1, 10 μg α2M* in 0.05 ml, 30 min room temperature, non-denaturing PAGE, read-out: IC50 for inhibiting complex formation between TGF-β1 and α2M*. As to the method: Saturated and unsaturated fatty acids are present in plasma and tissues (25,26). The effects of various concentrations of saturated fatty acids on the formation of complexes between ^125I-TGF ? β1 and ? 2M* were examined. ^125I-TGF- ? 1 (1 nM) was incubated μg/ml) in the presence of various concentrations of n-caprylic acid ([…]), lauric acid (12 carbon atoms), myristic acid (14 carbon atoms), palmitic acid (16 carbon atoms) and stearic acid (18 carbon atoms). After 30 min at room temperature, the reaction mixture was analyzed by 5% non-denaturing PAGE and autoradiography, a standard method form determining complex formation between TGF-β and α2M* (12). […] At 100 μM, it inhibited 20% of the complex formation between TGF ? β1 and α2M*. Esterification consistently abolished the inhibitory activities of the fatty acids.
Complex formation of ^125I-TGF-β and ? 2M*—The reaction mixture contained 10 μg of . α2M*, ˜1 nM of ^125I-TGF- ? 1, ^125I-TGF ? β2 or ^125I-TGF ? acids (dissolved in 100% ethanol) in 0.05 ml of 50 mM HEPES-NaOH buffer, pH 7.4. The final concentration of ethanol in the reaction mixture was 0.5%. These fatty acids and fatty acid derivatives were soluble under the experimental conditions. After 30 min at room temperature, the complex formation of ^125I-TGF- ? and. α2M* was determined by 5% non-denaturing polyacrylamide gel electrophoresis (PAGE) or by 7.5% SDS-PAGE following cross-linking by 0.6 mM DSS. After electrophoresis, the gel was stained with Coomassie blue and analyzed by autoradiography. The ^125I-TGF- ? - ? 2M* complex which co-migrated with free ? 2M* was quantified using a PhosphoImager (Fuji).

In a further test the test system is Mv1Lu cells. Kind of test: [Methyl-3H]-thymidine incorporation assay, TGF-β2-induced growth inhibition. Format: cell-based, mink. Conditions: 1 pM, absence of α2M*. The text has this:
The levels of TGF ? β and ? 2M* also increase dramatically. α2M* is capable of inhibiting TGF- ? activity by forming complexes with TGF- ? and thus preventing it from binding to TGF ? β receptors in cells involved. Fatty acids may potentiate TGF ? β activity by blocking complex formation of ? 2M* and TGF ? β under these conditions. To test this possibility, we determined the effects of arachidonic acid on ^125I-TGF- ? 2 binding (in the presence and absence of α2M*) to Mv1Lu cells. ? 2M* is known to inhibit TGF- ? 2 more strongly than TGF ? β1 binding to T receptors in cells (13). Various concentrations of ^125I-TGF- ? 2 were preincubated with 200 μg/ml of ? 2M* in the presence or absence of 30 μM arachidonic acid for 30 min prior to the performance of binding assays in Mv1Lu cells. […] The residual ^125I-TGF- ? binding associated with the cells after ? 2M* inhibition was mainly due to non-specific binding of ^125I-TGF- ? 2. […] In the presence of 200 μg/ml of ? 2M*, the dose-response curve of TGF ? β2 shifted to the right. […] Addition of arachidonic acid at 0.5 and 1 μM reversed the inhibitory effect of. α2M* on TGF- ? 2-induced growth inhibition as measured by [methyl-^3H]-thymidine incorporation.
[Methyl-^3H]-Thymidine Incorporation Assay—Mv1Lu cells were plated at a cell density of 7.5×10^4 cells/well in DMEM containing 0.1% fetal calf serum in 48-well cluster dishes. After 4 hr at 37° C. (to allow cell adherence), cells were treated with various concentrations of TGF- ? 2,2M* (0 or 200 μg/ml) and arachidonic acid ([…] or 1 μM). After 1h at 37° C., cells were pulsed with 1 μCi/ml [methyl-^3H]-thymidine for 2 hr. The [methyl-^3H]-th incorporation into cellular DNA was carried out in triplicate as described previously (23).

As usually defined, the IC50 is the concentration that inhibits the measured activity by half. Consider `CCCCCCCC/C=C\CCCCCCCC(=O)O` [oleic acid], for which, at TGF-β1-α2M* complex, the IC50 was determined as 5.2 ± 2 µM.
On the same count and under the same terms, under `CCCCCCCCCCCCCCCC(=O)O` [palmitic acid] stands 8.5 ± 1 µM.
As for `CCCCCC/C=C\CCCCCCCC(=O)O` [palmitoleic acid], the “activity compared with saturated counterparts of identical chain length” value at TGF-β1-α2M* complex is “weaker than their saturated counterparts”.
For the molecule `CCCCCCCCCCCCCCCCCC(=O)O` [stearic acid], on TGF-β1-α2M* complex, the IC50 is 6.6 ± 0.9 µM.
For `CCCCC/C=C\C/C=C\C/C=C\CCCCC(=O)O` [γ-linolenic acid], the IC50 on TGF-β1-α2M* complex amounted to 8 ± 2 µM.

B1: TGF-β2: transforming growth factor β isoform 2, 25-kDa dimeric protein (protein, UniProt P61812 303-414, looked up)
Transforming growth factor …: ALDAAYCFRNVQDNCCLRPLYIDFKRDLGWKWIHEPKGYNANFCAGACPYLWSSDTQHSRVLSLYNTINPEASASPCCVSQDLEPLTILYYIGKTPKIEQLSNMIVKSCKCS
For the molecule B1, in the test on Mv1Lu cells, the “inhibition of [methyl-3H]-thymidine incorporation into DNA” value is given as “approximately 25%”.
